Assay [1] addresses T1, Biotin-labeled amyloid-β (Homo sapiens, UniProt P05067). The experiment in a line: ELISA assay, binding of biotin-labeled amyloid-β to plate-coated test compounds. Conditions: compound coated at 1 μM. The protocol: Step 1. Sample Solution Preparations. For each test compound, four samples and two standard solutions using Thioflavin-T as the standard were prepared in a coating buffer, each to a final concentration of 1 μM. The coating buffer was 50 mM Tris (Trizma Base from Sigma Aldrich, Inc., St. […] Step 2. Coating the Plate. The sample solutions were applied to individual wells of a 96-well polystyrene microtiter plate at 100 μL/well. The plates were sealed and allowed to incubate at 4° C. for at least 8 hours. Step 3. Washing the Plate. The sample solutions were removed and the plate was washed two times with 300 μL/well of washing solution, which consisted of a 1 to 25 dilution in water of DELFIA® Wash Concentrate (PerkinElmer Life Sciences, Inc., Boston, Mass., USA). Step 4. Blocking. Blocking was achieved by adding 150 μL/well of a blocking buffer which consisted of a 1 to 20 dilution in water of Milk Diluent/Blocking Solution Concentrate (from KPL, Inc., Gaithersburg, Md., USA). The plate was then incubated at room temperature for 2 hours. Step 5. Sampling. Biotin-labeled amyloid-β was dissolved in a binding buffer to form a 1 μM solution of the amyloid-β. The binding buffer was a mixture of a coating buffer with the blocking buffer of Step 4 in a 90:10 ratio by volume. […] The dilutions were performed in quadruplicate, thus resulting in four sets of wells for each test compound. Step 6. Mixing. The solution in each well was mixed by being drawn into and ejected from a pipette 15 times. The plate was then gently agitated for further mixing. The plate was then covered and incubated at room temperature overnight. Step 7. Washing. The solution in each well was discarded and the plate was washed three times with 170 μL/well of the washing solution described above. Step 8. Binding with avidin-HRP. NeutrAvidinHRP solution was added to each well at 0.01 μg/well. The wells were then covered and incubated at room temperature for 30 minutes. Step 9. Substrate addition. The solution in each well was discarded and the plate was washed 3 times with the above-referenced washing solution at 170 μL/well of washing solution. A chemiluminescent substrate solution which was a mixture of equal volumes of LumiGLO Substrate A and LumiGLO Substrate B from KPL, Inc., was then added at 100 μL/well. Step 10. Fluorescence measurement and calculations. Luminescence was read on a Wallac Victor 1420 Multilabel Reader (PerkinElmer Life Sciences, Inc., Boston, Mass., USA). […] Average luminescence concentrations in counts per second (CPS) for each of the four β-amyloid-binding portion candidates at each dilution of the biotin-labeled β-amyloid are shown in Table I below.

Assay [2] deals with T1, Biotin-labeled amyloid-β. The experiment in a line: Dose response assay, plate-coated test compounds at 6 concentrations vs biotin-labeled amyloid β. Conditions: biotin-labeled amyloid at 1 μM; compounds coated at 6 concentrations. Type of assay: binding. As to the method:
Step 1. Coating the plate. The four compounds 3a, 3b, 3c, and 3d were diluted to 6 different concentrations in the same coating buffer used in the ELISA. The resulting solutions were applied to individual wells of a 96-well polystyrene microtiter plate at 100 μL/well. The plate was then sealed and allowed to incubate at 4° C. for at least 8 hours.
Step 2. Washing the plate. The sample solutions were then removed and the plate was washed twice with 300 μL/well of the same washing solution used in the ELISA.
Step 3. Blocking. The blocking buffer used in the ELISA was added at a volume of 150 μL/well, and the plate was incubated at room temperature for 2 hours.
Step 4. Sampling. The blocking buffer was removed and biotin-labeled amyloid P was added to each well at a concentration of 1 μM in the same binding buffer used in the ELISA. The solution in each well was then mixed by being drawn into and ejected from a pipette 15 times. The plate was then gently agitated for further mixing. After mixing, the plate was covered and incubated at room temperature overnight.
Step 5. Washing. The solution in each well was discarded and the plate was washed three times with 170 μL/well of the washing solution described above.
Step 6. Binding with avidin-HRP and substrate. NeutrAvidinHRP solution was added to each well at 0.01 μg/well. The wells were then covered and incubated at room temperature for 30 minutes. The solution in each well was discarded and the plate was washed 3 times with the above-referenced washing solution at 170 μL/well of washing solution. The chemiluminescent substrate solution of the ELISA was then added at 100 μL/well, and luminescence was read using the Wallac Victor 1420 Multilabel Counter.
Step 7. Reading and calculations. Values for average luminescence vs. concentration were developed in the same manner as in the ELISA. From these values were determined EC50 values for each of the four test compounds as β-amyloid-binding portion candidates.

T1 sequence (P05067 672-711 limits assumed): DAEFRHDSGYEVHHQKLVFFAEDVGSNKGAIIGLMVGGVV

On to `NCCCCNC(=O)c1ccccc1Nc1cccc(C(F)(F)F)c1` [3c], for which the “Average Luminescence Concentration (CPS)” value in assay [1] (β-Amyloid Dilution 1 (μL/well)) is given as 32 CPS; in assay [1] (β-Amyloid Dilution 5 (μL/well)), 74 CPS; in assay [1] (β-Amyloid Dilution 10 (μL/well)) it was 3128 CPS; in assay [1] (β-Amyloid Dilution 20 (μL/well)) it was 161 CPS; in assay [1] (β-Amyloid Dilution 30 (μL/well)), 2968 CPS; in assay [1] (β-Amyloid Dilution 40 (μL/well)) it was 3025 CPS. In assay [2], this molecule came in with an EC50 of 36.2 µM.

As a reminder, the EC50 is the midpoint of the concentration-response curve. Higher therefore signals lower potency in that assay.

The values are drawn from US7943775B2, “Small molecules for imaging protein-protein interactions” (The United States of America as represented by the …, priority 2006, dated 2011).
